Data from patent US20160215348A1, “GENE EXPRESSION BIOMARKERS AND THEIR USE FOR DIAGNOSTIC AND PROGNOSTIC APPLICATION IN PATIENTS POTENTIALLY IN NEED OF HDAC INHIBITOR TREATMENT” (4SC AG, priority 2013, published 2016).

Legend:
[1] = tested on: hepatocellular cancer (HCC); assay: SHELTER clinical trial, overall survival (Kaplan-Meier) by baseline ZFP64 expression; type: in vivo, human
Experimental: Resminostat was explored as monotherapy and in combination with sorafenib. Patients with advanced HCC (BCLC staging B/C) were included in a multi-center, two-arm trial. […] A dose escalation of resminostat (range 200 to 600 mg) combined with Sorafenib (400 or 800 mg) was performed. Arm A investigated the drug combination (resminostat+sorafenib), Arm B the monotherapy of resminostat (600 mg). Primary objective was the progression-free survival rate (PFSR) after 12 weeks (w). Secondary objectives included safety, tolerability, tumor response, PFS, TTP, OS and the analyses of PK and biomarkers (BM), incl. HDAC enzyme inhibition, histone acetylation and gene expressions in peripheral blood. Based on the results and indications seen in the analysis in example 3a, the dCt values of ZFP64 at baseline were treated with the method described here for determining the split between gene expression groups. Data was processed as follows: Gene expression data of the genes of interest was gathered as real time PCR dCt values relative to the expression of housekeeping genes for a specific time point, e.g. at baseline prior to treatment start. […] Said two groups were then compared in Kaplan-Meier analyses for OS, PFS in order to identify a statistically significant difference that separates the patients' probability for OS, PFS.

ZFP64 = assay: Nuclear protein extraction and Western blot, HepG2 cells; type: cell-based, human; details: 5 μM, 24 h, vs 0.1% DMSO
Experimental: After isolating nuclear fractions, ZFP64 protein levels were detected by Western Blot analysis. Histone H3 serves as nuclear loading control.
4 h upon seeding, HepG2 cells were treated with either 0.1% DMSO or 5 μM resminostat.
24 h upon resminostat treatment, cells were washed once with PBS before scraping and harvesting in cold PBS and transferring the cells into pre-chilled 15 ml falcon tubes. […]
From each nuclear sample 4.4 μg protein (measured via BCA protein assay) were added to the same amount of Tricine buffer (supplemented with B-Mercaptoethanol), heated at 95° C. for 5 min and then placed on ice. […]
The next day, after washing four times with Washing Buffer, membranes were incubated for 1 h with the corresponding horseradish peroxidase-conjugated anti-rabbit IgG secondary antibody at a dilution of 1/50.000 and anti-Biotin at a dilution of 1/1.000 (diluted in 10 ml 1/10 diluted SuperBlock T20 Blocking Buffer). After washing four times with Washing Buffer, HRP signals were detected using enhanced chemoluminescence and exposed to X-ray films. Subsequently, the films were scanned using the Gel Doc 2000 and the corresponding signals were quantified with the “Quantity One” Software (BioRad).

HDAC = assay: Cellular HDAC enzyme activity in patients' whole blood (Boc-K(Ac)-AMC), inhibition vs pre-dose; type: in vivo, human; details: SAPHIRE
Experimental: Samples were obtained and gene expressions were determined with the methods as described herein below. Whole blood was incubated for 2 h at 37° C. with fluorescent HDAC substrate Boc-K(Ac)-AMC. After the lysis of erythrocytes remaining cells were stored at −80° C. HDAC activity was determined by fluorimetric analysis using a FLUOstar OPTIMA plate reader, where cells were incubated with a defined developer reagent (containing trypsin and lysis buffer) which leads to cell lysis and generation of a fluorophore from the deacetylated substrate. Finally inhibition of HDAC activity compared to pre-dose levels was calculated.
• Labelled 15 ml tubes (e.g. PP tubes, e.g. Falcon® tubes) • Labelled 2 ml tubes (e.g. PP tubes) • Erythrocyte Lysis buffer (Qiagen 79217) (stored at RT until use) • 40 mM Boc-K(Ac) AMC Stock in DMSO (Bachem: 1-1875) (stored at −80° C. until use)
• 1) Add 1 ml citrate blood into a 15 ml labelled tube. • 2) Add 5 μl 40 mM Boc-K(Ac) AMC to 1 ml citrate blood (final concentration: 200 μM Boc-K(Ac) AMC). • 3) Incubate for 2 h in an incubator (37° C.). • 4) Add 5 fold volume (5 ml) of 4° C. cold erythrocyte lysis buffer (EL buffer, Qiagen 79217). • 5) Mix briefly on a shaker. • 6) Incubate on ice for at least 15 min; mix two times in between on a plate shaker. • 7) Add 7 ml of 4° C. […]

[2] = SHELTER patients on resminostat 600 mg or resminostat 600 mg + sorafenib 400 mg, pooled, split at 75th percentile
[3] = SHELTER, single arm, resminostat 600 mg (combination: + sorafenib 400 mg), split at 75th percentile
[4] = all available SHELTER patients (monotherapy and sorafenib combination arms pooled), split 60% high/40% low

With `CN(C)Cc1ccc(S(=O)(=O)n2ccc(/C=C/C(=O)NO)c2)cc1` [resminostat, (E)-3-(1-(4-((dimethylamino)methyl)phenylsulfonyl)-1H-pyrrol-3-yl)-N-hydroxyacrylamide] the “median OS (high ZFP64 expression)” value [1, 2] was 9.4 months, the “median OS (low ZFP64 expression)” value [1, 2] was 5.1 months and the “overall median OS for the two groups” value ([1]; SHELTER, single arm, resminostat 600 mg (combination: + sorafenib 400 mg)) was 3.7 months. The “median OS for high ZFP64 expression” value [1, 3] was 7.0 months, the “median OS for low ZFP64 expression” value [1, 3] was 0.9 months and the “median OS (high ZFP64 expression)” value [1, 4] was 8 months. For the same compound, the “median OS (low ZFP64 expression)” value [1, 4] was 3.9 months, the “ZFP64 nuclear protein levels (Western Blot)” value (ZFP64) was “diminished” and the “Inhibition of HDAC enzyme activity (median)” value (HDAC; 2 h post-dose, both dose groups (600 mg, 800 mg), vs pre-dose) was at most 93%. For the same compound, the “Inhibition of HDAC enzyme activity” value (HDAC; day 8, 800 mg dose group, wide range of individual values) was “up to 41%”.
